The text below walks through data of DBAASP.

Values after ≈ are worked out from the molar mass of the structure shown. Values joined by “and” are separate entries in the source; they are usually repeats but may differ in a detail not shown here. Equal values may be shown once.

Some test systems named below: Aeromonas hydrophila; Bacillus cereus; Bacillus megaterium; Burkholderia stabilis; Escherichia coli; Kluyvera cryocrescens; Lelliottia amnigena; Microbacterium oxydans; Micrococcus luteus; Proteus sp.; Pseudomonas fluorescens; Shigella sp.; Sporosarcina ureae; Staphylococcus aureus; Escherichia coli SBS 363; Klebsiella pneumoniae; Escherichia coli HB101.
Holding throughout (experiment): ≥ marks a high value that may be exact or a test limit, other limits are often not marked, values filed in µg/mL are converted to µM
Test [1] deals with Salmonella enterica subsp. enterica serovar Gallinarum.
Test [2] relates to Salmonella enterica subsp. enterica serovar Typhi.
Test [3] has as its system Lactiplantibacillus plantarum 965.
Test [4] deals with Latilactobacillus sakei NCDO 2714.
Test [5] relates to Bacillus megaterium CIP 6620.
Test [6] relates to Corynebacterium stationis CIP 101282.
Test [7] deals with Microbacterium maritypicum CIP 105733T.
In test [8] the test system is Micrococcus luteus CIP 5345.
The subject of test [9] is Staphylococcus aureus CIP 103428.
Test [10] deals with Staphylococcus aureus SG511.
Test [11] concerns Staphylococcus haemolyticus.
Test [12] concerns Vibrio nigripulchritudo CIP 103195.
The test system of test [13] is Vibrio splendidus CIP 107715.
Test [14] has as its system Acinetobacter baumannii KCTC 2508.
For test [15], the system named is Escherichia coli ATCC 25922.
The test system of test [16] is Klebsiella pneumoniae KCTC 2208.
Test [17] deals with Micrococcus luteus ATCC 49732.
Test [18] deals with Pseudomonas aeruginosa ATCC 27853.
For test [19], the system named is Staphylococcus aureus ATCC 25923.
Test [20] concerns Vibrio anguillarum ATCC 43308.

Regarding `CC[C@H](C)[C@H](NC(=O)[C@H](Cc1cnc[nH]1)NC(=O)[C@H](CC(N)=O)NC(=O)[C@@H](NC(=O)[C@@H](NC(=O)[C@H](CC(C)C)NC(=O)[C@H](CC(=O)O)NC(=O)[C@@H]1CCCN1C(=O)[C@H](CC(C)C)NC(=O)[C@H](CCCCN)NC(=O)[C@H](Cc1c[nH]c2ccccc12)NC(=O)[C@@H](N)CCC(=O)O)[C@@H](C)CC)[C@@H](C)CC)C(=O)N[C@H](C(=O)N[C@@H](CC(C)C)C(=O)N[C@H](C(=O)N[C@@H](CCCN=C(N)N)C(=O)N[C@@H](CCCN=C(N)N)C(=O)N[C@@H](CC(N)=O)C(=O)N[C@H]1CSSC[C@@H](C(=O)NCC(=O)O)NC(=O)[C@H](CCCN=C(N)N)NC(=O)[C@H](Cc2ccc(O)cc2)NC(=O)[C@H](CCCCN)NC(=O)[C@H](Cc2ccccc2)NC1=O)[C@@H](C)O)[C@@H](C)O` [EWKLPDLIINHITLTRRNCFKYRCG], the MIC was 1.64 µM (≈ 5.07 µg/mL) in the test on Aeromonas hydrophila; 0.327 µM (≈ 1.01 µg/mL) against Bacillus cereus; 3.27 µM (≈ 10.1 µg/mL) in the test on Bacillus megaterium; at least 164 µM against Burkholderia stabilis; 16.4 µM (≈ 50.7 µg/mL) with Escherichia coli; at least 164 µM against Kluyvera cryocrescens. The MIC against Lelliottia amnigena was 16.4 µM (≈ 50.7 µg/mL); in the test on Microbacterium oxydans it was 0.164 µM (≈ 0.507 µg/mL); in the test on Micrococcus luteus, 16.4 µM (≈ 50.7 µg/mL); against Proteus sp. it was at least 164 µM; against Pseudomonas fluorescens, at least 32.7 µM; in test [1], 1.64 µM (≈ 5.07 µg/mL). Besides, the MIC in [2] was 16.4 µM (≈ 50.7 µg/mL); in the test on Shigella sp., 16.4 µM (≈ 50.7 µg/mL); in the test on Sporosarcina ureae it was at least 164 µM; with Staphylococcus aureus, 164 µM (≈ 507 µg/mL).

As for `CC[C@H](C)[C@H](NC(=O)[C@H](C)NC(=O)[C@@H](NC(=O)[C@H](C)NC(=O)CN)[C@@H](C)O)C(=O)N[C@@H](CCCCN)C(=O)N[C@@H](CCC(N)=O)C(=O)N[C@H](C(=O)N[C@@H](CCCCN)C(=O)N[C@@H](CCCCN)C(=O)N[C@@H](CC(C)C)C(=O)N[C@@H](Cc1ccccc1)C(=O)N[C@@H](CCCCN)C(=O)N[C@@H](CCCCN)C(=O)N[C@@H](Cc1c[nH]c2ccccc12)C(=O)NCC(=O)N[C@@H](Cc1c[nH]c2ccccc12)C(=O)O)C(C)C` [GATAIKQVKKLFKKWGW], the MIC is 0.4 µM (≈ 0.796 µg/mL) in test [3] and 0.015 µM (≈ 0.0298 µg/mL) in test [4].

On to `CC[C@H](C)[C@H](NC(=O)[C@@H]1CCCN1C(=O)CN)C(=O)N[C@@H](CCCN=C(N)N)C(=O)N[C@@H](CCCN=C(N)N)C(=O)N1CCC[C@H]1C(=O)N[C@@H](CCCCN)C(=O)N1CCC[C@H]1C(=O)N[C@@H](CCCN=C(N)N)C(=O)N1CCC[C@H]1C(=O)N[C@@H](CCCN=C(N)N)C(=O)N[C@@H](CCC(N)=O)C(=O)N[C@@H](CCCN=C(N)N)C(=O)N1CCC[C@H]1C(=O)N[C@@H](CCC(=O)O)C(=O)O` [GPIRRPKPRPRQRPE], for which the MIC in [5] is 20 µM (≈ 36.8 µg/mL); in [6], 20 µM (≈ 36.8 µg/mL); against Escherichia coli SBS 363, at least 80 µM; in [7], 20 µM (≈ 36.8 µg/mL); in test [8] it was at least 80 µM; in test [9], 20 µM (≈ 36.8 µg/mL). For the same molecule, the MIC in test [10] is 20 µM (≈ 36.8 µg/mL); in [11], 20 µM (≈ 36.8 µg/mL); in test [12] it was at least 40 µM; in test [13] it was at least 40 µM.

`CC[C@H](C)[C@H](NC(=O)[C@@H](NC(=O)[C@H](Cc1cnc[nH]1)NC(=O)[C@H](CCCN=C(N)N)NC(=O)[C@H](C)NC(=O)[C@H](CCCN=C(N)N)NC(=O)[C@H](CC(C)C)NC(=O)[C@H](CO)NC(=O)[C@H](C)NC(=O)[C@H](CS)NC(=O)[C@H](CC(C)C)NC(=O)[C@@H](N)CC(N)=O)[C@@H](C)O)C(=O)N1CCC[C@H]1C(=O)N[C@@H](CCC(N)=O)C(=O)N[C@@H](CS)C(=O)N[C@@H](CCCCN)C(=O)N[C@@H](CCCCN)C(=O)N[C@@H](Cc1ccccc1)C(=O)NCC(=O)N[C@@H](CCCN=C(N)N)C(=O)N[C@@H](CCCN=C(N)N)C(=O)O` [NLCASLRARHTIPQCKKFGRR]: the MIC in test [14] was 16 µM (≈ 39.3 µg/mL); in test [15], 2.57 µM (≈ 6.3 µg/mL); in test [16] it was 16 µM (≈ 39.3 µg/mL); with Klebsiella pneumoniae, > 32 µM and 16 µM; in [17] it was 2.57 µM (≈ 6.3 µg/mL); in test [18] it was 32 µM (≈ 78.6 µg/mL). Also, the MIC in [19] is 2.57 µM (≈ 6.3 µg/mL); in [20] it was 5.09 µM (≈ 12.5 µg/mL).

As to `CC[C@H](C)[C@H](NC(=O)[C@H](CCCN=C(N)N)NC(=O)[C@@H](N)CCCN=C(N)N)C(=O)N[C@@H](CCCN=C(N)N)C(=O)N1CCC[C@H]1C(=O)N[C@@H](CCCN=C(N)N)C(=O)N1CCC[C@H]1C(=O)N[C@@H](CCCN=C(N)N)C(=O)O` [RRIRPRPR], the MIC was above 128 µM in [15] and at least 128 µM against Escherichia coli HB101.
